Consider one compound from publication PMC10923054, “Antiplasmodial peptaibols act through membrane directed mechanisms” (Cell Chemical Biology, 2024).

Assay [1] has as its system HepG2-A16-CD81 cells. In kind it is cell-based, H. sapiens. The following applies: HepG2-A16-CD81 without sporozoites, CellTiterGlo; up to 50 μM; read-out: HepG2 EC50 (liver stage counter screen). As to the method:
The liver stage was performed as discussed in.[61] Liver-stage inhibitory activity was evaluated in HepG2-A16-CD81 cells and using P. berghei sporozoites (P. berghei ANKA GFP-Luc-SMcon) freshly obtained by dissecting salivary glands of infected A. stephensi mosquitoes. Cells were first seeded in 1536-well plates (Greiner Bio) containing 50 nL of test and control compounds dissolved in DMSO and incubated for 24 h. Sporozoites were then added to each well at a density of 1 × 10^3 cells per well and kept at 37°C for 48 h. Afterwards, luciferin reagent (Promega BrightGlo) was added to each well, and luciferase activity was detected using a Perkin Elmer Envision plate. As a counter screen, HepG2-A16-CD81 cells were seeded as above and exposed to drug in the absence of sporozoites. Viability was evaluated by adding Promega CellTiterGlo® followed by luminescence measurement using a Perkin Elmer Envision plate reader. IC50 values were determined using CDD vault (https://www.collaborativedrug.com/).

Assay [2] concerns P. falciparum 3D7 transcriptome. The assay is described as follows: RNASeq analysis of treated culture. In kind it is cell-based. The note with it: 3D7, 1 h, EC50 concentration, vs vehicle. The procedure: P. falciparum 3D7 culture was synchronized as previously described[64] by combination of MACS column (Mitenyi Biotic, Auburn, CA)[65] and 5% sorbitol.[66] In brief, asynchronous culture with a majority ring stage population was centrifuged, pelleted, and resuspended in 5% sorbitol and incubated at room temp for 10 min. Parasites were then washed with culture media and returned to the culture incubator. For MACS column, columns were rinsed once with RPMI prior to parasite addition. After flow-through was complete, parasites on the column were eluted onto culture plates and returned to the culture incubator. […] RNA was then extracted using Direct-zol™ RNA Miniprep Plus (Zymo Research Corporation, Irvine, CA.) following manufacturers protocols. In brief, culture was lysed with 0.1% saponin and incubated for 5 min prior to centrifuging at 900 x g for 6 min at 4°C. Cells were washed once with RPMI then once with PBS before resuspension in triazole reagent. Samples were mixed vigorously for 5 min, centrifuged at 16,000 x g for 1 min, then transferred to a RNase free tube, and an equal volume of EtOH was added. After mixing, sample was loaded onto column and centrifuged at 16,000 x g for 30 sec then washed with pre-wash buffer. Columns were incubated with DNase buffer for 15 min then washed with pre-wash buffer. Two more wash steps were performed before allowing any excess EtOH to dry for 2 min. Finally, columns were transferred to a new RNase free tube in which RNA was eluted with RNase free water.
Preliminary integrity and concentration determination was performed via nanodrop and RNA gel electrophoresis, prior to a full integrity check via Agilent Technologies 2100 Bioanalyzer. After rRNA depletion, RNA fragmentation was performed using elevated temperatures and divalent cation buffers. Library preparation was done using the Illumina TruSeq-stranded-total-RNA-sample preparation protocol, with Agilent Technologies 2100 Bioanalyzer High Sensitivity DNA Chip for quality control, and Illumina’s NovaSeq 6000 sequencing system for paired-ended sequencing. For transcript assembly, Cutadapt[71] and LC Sciences in house perl scripts were used to remove low quality or undetermined bases and reads, along with adaptor contamination. Sequence quality was then confirmed using FastQC.[72] Reads were mapped to the P. falciparum genome using Bowtie2[73] and HISAT2,[74] then assembled using StringTie.[75] To assist in the filtering process, the transcriptomes from HZ NPDG-I and the vehicle control were assembled simultaneously to construct a merged transcriptome using perl scripts and gffcompare.[76] Finally, StringTie[75] and edgeR[77] were used to estimate transcript expression levels by calculating FPKM using the following equation: FPKM=totalexonfragments/mappedreads(millions)xexonlength(kB)
To calculate p value, a parametric F-test comparing nested linear models was performed using edgeR.[77] The q-values were also calculated using a Benjamini-Hochberg procedure. Differential expression for mRNA was calculated at the gene level (all transcript isoforms grouped as 1 gene) and the transcript level (all transcript isoforms ranked individually). […] The coding potential of the remaining transcripts was then determined using CPC[78] and CNCI,[79] and transcripts with a CPC score <0.5 and/or CNCI score <0 were removed. […] The predicted cis-targets of the novel lncRNAs were then determined for the coding genes 100,000 bp upstream and downstream with perl script. […]

For assay [3], the system named is Dd2-B2. In kind it is cell-based, P. falciparum. The procedure:
Screening of HZ NPDG-I resistant clones was performed at 1% parasitemia, 0.2% hematocrit with flow cytometry in V-shaped 96-well plates. Briefly, compounds were subjected to a 3-fold serial dilution with the highest concentration set at 4 μM or 8 μM. Eleven dilution points were included in addition to no-drug controls. Three technical replicates were set up for each compound at each dilution point. The Dd2-B2 parent line, or the clonal line 1B2, 2B3, 3A3, or 1E2 were added at 0.4% hematocrit and 1% parasitemia to the diluted compounds at a 1:1 ratio. The plate was incubated at 37°C for 72 h in a chamber filled with a hypoxic gas mixture (3% oxygen, 5% carbon dioxide, and 92% nitrogen). After incubation, a blood pellet was formed at the bottom of each well of the 96-well plate. Supernatant was removed without disturbing the pellet, and 20 μl of SYTO 61(1:10,000 dilution; Thermo Fisher Scientific, Cat No. S11343) in PBS was added to each well and incubated for 15 mins at room temperature. The cells in each well were then diluted with 180 μl of PBS and subjected to flow cytometry for parasitemia determination using the HTS (High-Throughput Sampler) of BD FACSCanto II (BD Biosciences, NJ). Flow cytometry data was analyzed using FlowJo Version 10.4.0. Dose response curves were generated and IC50 values obtained with GraphPad Prism Version 9.1.1.
A clone of the Dd2 strain (Dd2-B2) of P. falciparum was used for in vitro evolution of resistance against harzianin NPDG I. Three flasks of 1.2 x 10^8 parasites were continuously exposed to a stepwise-increasing concentration of the compound over ∼3 months starting from 20 nM up to a final concentration of 100 nM. Once a stable rightward shift in 72 h IC50 was observed, cultures were subjected to limiting dilution to obtained harzianin-resistant clones. Each clone was expanded, phenotyped to confirm resistance, and submitted for whole genome sequencing. An untreated flask of Dd2-B2 parasites was maintained in parallel throughout the course of in vitro selection as a control.

Where two headings read alike, the source gives them in different places. Square brackets hold non-standard residues; d marks the D form. Peptide text beside a SMILES is read from it. Leu(ol) = CC(C)C[C@H](N)CO; dIva = CC[C@@](C)(N)C(=O)O; Aib = CC(C)(N)C(=O)O

One may read the EC50 as the concentration at which the effect is half-maximal. Broadly, the IC50 is the concentration at which inhibition is half-maximal. As to `CC[C@H](C)[C@H](NC(=O)[C@H](CC(C)C)NC(=O)[C@H](CCC(N)=O)NC(=O)[C@@](C)(CC)NC(C)=O)C(=O)NC(C)(C)C(=O)N1CCC[C@H]1C(=O)N[C@](C)(CC)C(=O)N[C@@H](CC(C)C)C(=O)NC(C)(C)C(=O)N1CCC[C@H]1C(=O)N[C@H](CO)CC(C)C` [HZ NPDG-I, harzianin NPDG I] (Ac-[dIva]QLI[Aib]P[dIva]L[Aib]P[Leu(ol)]), the EC50 in assay [1] was above 50000 nM. Further, in assay [2], the “RNA-seq log2fc, PF3D7_0106100” value is given as −1.35; the “RNA-seq log2fc, PF3D7_0519200.1” value was −5.06; the “RNA-seq log2fc, PF37D_1419800.1” value is −3.23; the “RNA-seq log2fc, lncRNA MSTRG.194.1” value amounted to 16.51. In assay [2], the “RNA-seq log2fc, lncRNA MSTRG.363.2” value amounted to 14.54. In addition, the IC50 in assay [3] (flask 1, read-out: IC50, Dd2-B2 parent) turned out to be 0.0536 nM. In addition, in assay [3] (flask 2, read-out: IC50, Dd2-B2 parent), the half-inhibitory concentration (IC50) worked out at 0.0222 nM. Also, the IC50 in assay [3] (flask 3, read-out: IC50, DD2-B2 parent) was 0.0437 nM.
